Literature values as cited in patent US10918699B2, “Therapeutic treatment for neurotrophic keratopathy” (priority 2017, dated 2021).

Assays:
[1] = tested on: corneal epithelium wound healing; settings: together with substance-P; several pre-clinical studies
[2] = tested on: cultured sheets of corneal epithelial cells
corneal ulcers = settings: systemic administration, humans, 1945 case series

Substance	corneal epithelium wound healing [1]	cell migration and closure of artificial wounds [2]	healing of corneal ulcers (corneal ulcers)
Insulin-like growth factor-1 [IGF-1]	act synergistically with substance-P		
insulin		promoted cell migration and closure of artificial wounds	improved healing
